For series [1] the following is noted: after 28 days; 2.0 ppm of pure active solid or 5.5 ppm as commercial product; previous study; cited from earlier work.
A short description of series [2]: Barium sulphate scale inhibition. As to conditions: minimum phosphonate concentration to inhibit 100% BaSO4 scale; 50/50 North Sea water/Formation water, pH 6, 22 hours at 90 °C, ICP-MS. Here is the method: To evaluate the efficiency of both scale inhibitors according to the present invention and comparative ones in preventing barium scale inhibition in oil field scaling conditions, the present test is carried out determining the amount of BaSO4 that has precipitated after 22 hours at 90 °C, in a 50/50 mixture of synthetic North Sea water
The amount of soluble Ba ions is determined by inductively coupled plasma mass spectrometry (ICP-MS).
The present test is carried out as follows: • synthetic North Sea and Formation waters are prepared at pH 6. These water solutions are preheated at 90 °C before starting the test. An acetic acid/sodium acetate buffer is prepared and added to the North Sea water in order to give the required pH; • - 15, 30, 50, 70 and 100 ppm of scale inhibitor active phosphonic acid is added to a glass bottle; • - 50 ml of North Sea water is added to this glass bottle while stirring. 50 ml of Formation water is then added to this glass bottle; • - one blank solution is prepared, by mixing 50 ml of North Sea water with 50 ml of Formation water; • - sample bottles were put in an oven for 22 hours at 90 °C; • - after 22 hours, 3 ml of each test solution was taken from the surface, was filtered through a 0.45 µm Millipore filter and added to a stabilizing solution.
The stabilized samples were analyzed by ICP-MS for Ba.
Ba scale inhibition stands for the minimum phosphonate concentration to inhibit 100% BaSO4 scale.
Note that the 100% phosphonate efficiencies for BaSO4 scale inhibition are calculated as follows: % Scale inhibition = (V1−V0/V2−V0) × 100 [formula] wherein V0 = ppm Ba found in the blank solution; V1 = ppm Ba found in the solution with the scale inhibitor; and V2 = ppm Ba present in the Formation water.

Series [3] in a line: Thermal stability test in synthetic North Sea water. It counts as physicochemical. Conditions: 1% active acid in synthetic North Sea water, pH 5.5, 140 °C, one week, 31P NMR; percentage by weight. Here is the method:
The test is carried out as follows: an aqueous solution containing 20% of scale inhibitor active acid at pH 5.5 (solution 1) is prepared. After that, synthetic North Sea water having a pH of 5.5 (solution 2) is prepared. A 1% scale inhibitor active acid sample is prepared by mixing 1 g of solution 1 with 19 g of solution 2. The so prepared sample is placed in a closed pressure resistant tube and kept in an oven at minimum 140 °C for one week. Finally, after one week, the sample is analyzed by means of 31P NMR spectroscopy.

Series [4] is described as follows: Calcium carbonate scale inhibition. Conditions: 2 ppm active phosphonic acid; 240 ppm Ca2+, 732 ppm HCO3-, pH 8.7 buffer, 50 °C, 22 hours. The method, then:
To evaluate the efficiency of both scale inhibitors according to the present invention and comparative ones in preventing calcium carbonate scale in industrial water treatment conditions, the present test is carried out determining the amount of CaCO3 that has precipitated after 22 hours at 50 °C in a 50/50 mixture of cationic and anionic waters with the test phosphonates at three different concentrations. The amount of soluble Ca ions is analyzed by titration. […]
Put the sample bottles in an oven for 22 hours at 50 °C. […] The phosphonate efficiency as CaCO3 scale inhibition is then calculated using the equation: % CaCO3 inhibition = (Cat−Cab) × 100)÷(Cai−Cab) [formula] wherein Cat = calcium remaining in solution of the t sample, where the dilution with HCl has been corrected (Cat=(Caf)×Wta/Wtsam); Cab = Calcium remaining in the blank (i.e. glass bottle wherein no phosphonate was added; under these condition corresponds to minimum of 80% of calcium precipitated as CacO3); and Cai = Total calcium present in a reference t sample (i.e. a sample t in which the hardness brine has simply been diluted with water to get the same final volume).

A short description of series [5]: Biodegradability, OECD 306 closed bottle marine test. As to conditions: after 14 days; 2 ppm of pure active solid.
Experimental: Biodegradation tests are performed using the standard "closed bottle" marine test methods in accordance with OECD Guidelines 306. OECD306 is a test that measure biodegradation indirectly through the determination of the amount of dissolved oxygen in the medium. The measurement obtained are used to estimate the biodegradability (BOD) during the process.
The measured value of the BOD need to be corrected by dividing either with an experimental value of COD or a ThOD and multiply by 100% to get the biodegradability value.
OECD306 closed bottle test for was performed with a similar test set-up.
A short description of series [6]: Brine and sea water compatibility test (Ca tolerance). It counts as physicochemical. As to conditions: synthetic North Sea water pH 5.5, 90 °C, 24 hours. The method, then: Scale inhibitors, especially if they have anionic moieties, may form complexes and precipitate with hardness salts, for example calcium, before they can fulfill their dispersing and chelating functions. Compatibility tests are carried out to check if complexation happens or not. If compatibility is poor, not only precipitation occurs, but also overall scale formation becomes faster.

Read-outs that look alike come from different tables or passages of the source.

With `O=C(O)CCCCCN(CP(=O)(O)O)CP(=O)(O)O`, in series [1], the Biodegradability is recorded as 77.15%. Further, the “100% Ba scale inhibition” value in series [2] is given as “(no inhibition on Ba)”.
Regarding `O=P(O)(O)CN(CP(=O)(O)O)CP(=O)(O)O` [ATMP, aminotris(methylenephosphonic acid)], the “Decomposition (%)” value in series [3] came to 12.5%.
For the compound `O=C(O)CCCCCNC(P(=O)(O)O)P(=O)(O)O` [Compound of Formula II, 6-((diphosphonomethyl)amino)hexanoic acid], the “Decomposition (%)” value in series [3] turned out to be 3.0%. Further, in series [4], the “% CaCO3 inhibition” value was 94% @ 2 ppm. Further, the Biodegradability in series [5] is 31.5%. The “Ca Tolerance , visual observation” value in series [6] (100 ppm active acid) is listed as “clear”; in series [6] (1000 ppm active acid), “turbid”; in series [6] (10000 ppm active acid), “turbid”; in series [6] (50000 ppm active acid) it was “clear”. The “100% Ba scale inhibition” value in series [2] turned out to be 50 ppm.
For `O=P(O)(O)CN(CCN(CP(=O)(O)O)CP(=O)(O)O)CCN(CP(=O)(O)O)CP(=O)(O)O` [DTMPA, [[(phosphonomethyl)imino]bis [2,1-ethanediylnitrilobis (methylene)]] tetrakis-phosphonic acid], the “Decomposition (%)” value in series [3] was found to be 23.6%. For the same compound, the “Ca Tolerance , visual observation” value in series [6] (100 ppm active acid) was “clear”; in series [6] (1000 ppm active acid), “turbid”; in series [6] (10000 ppm active acid) it was “turbid”; in series [6] (50000 ppm active acid), “clear”. In series [2], the “100% Ba scale inhibition” value is given as 15 ppm.
Consider `CC(O)(P(=O)(O)O)P(=O)(O)O` [HEDP, 1-hydroxy ethylidene-1,1-diphosphonic acid], for which, in series [3], the “Decomposition (%)” value amounted to 2.3%. In addition, the “Ca Tolerance , visual observation” value is “clear” in series [6] (100 ppm active acid), “turbid” in series [6] (1000 ppm active acid), “turbid” in series [6] (10000 ppm active acid) and “clear” in series [6] (50000 ppm active acid). In addition, the “100% Ba scale inhibition” value in series [2] was determined as 30ppm.
Regarding `O=P(O)(O)CN(CCO)CP(=O)(O)O` [HEMPA, hydroxyethylamino-di(methylene phosphoric acid)], in series [3], the “Decomposition (%)” value is on record as 19.0%.

The record behind these values is patent publication EP3860956B1, “PROCESS FOR MANUFACTURING N-ALKYL-DIPHOSPHONATE AMINO AMINOACIDS” (Italmatch Chemicals S.p.A., priority 2018, dated 2020).
